Measurements: US9440933B2, “Azole derivative, method for producing same, intermediate compound, and agricultural or horticultural chemical agent and industrial material protecting agent” (KUREHA CORPORATION, priority 2011, dated 2016)

Assays:
[1] = system: Gray mold-causing microbe (Botrytis cinerea); test: Antimicrobial activity to various pathogenic microbes: B.c; conditions: 50 mg/L
Description: (§1) An inventive compound was dissolved in dimethylsulfoxide 2 ml. The solution 0.6 ml was added to a PDA medium (potato-dextrose-agar medium) 60 ml at around 60° C.
(§2) A flat plate containing a test microbe (wheat leaf blight-causing microbe) cultured separately was punched into pieces with a cork borer having a diameter of 4 mm and the circular plate obtained was placed on the flat plate media containing the chemical described above. The plates were cultured at 25° C. for 14 days after inoculation and the diameter of the microbial colony was determined. Hyphal expansion-inhibiting rate was calculated according to the following equation: R=100(dc−dt)/dc (wherein, R: hyphal expansion-inhibiting rate (%), dc: diameter of microbial colony on non-treated flat plate, dt: diameter of microbial colony on chemically-treated flat plate).
(§3) In this Test Example, the antimicrobial activity of the inventive compounds to various plant disease-causing fungi and industrial material-eroding microorganisms was studied by the method described in Example 1.
(§4) The results thus obtained were evaluated in 5 stages according to the criteria below:
Gray mold-causing microbe (Botrytis cinerea) B.c

wheat = test: Damage to wheat (growth inhibition) by seed treatment (pot test); conditions: 2 mg in DMSO applied to wheat seeds 1 g, 14 to 28 days after seeding, larger index = smaller damage
[2] = system: wheat leaf blight-causing microbe; test: Antimicrobial activity to wheat leaf blight-causing microbe (PDA plate, hyphal expansion inhibition); assay type: cell-based, Septoria tritici; conditions: PDA medium, 25° C., 14 days; for inhibition at 50 µg/mL: read-out: Growth inhibition
Description: In this Test Example, antimicrobial activity of the inventive compounds to wheat leaf blight-causing microbe was determined and compared with that of the comparative compound (1).

[3] = system: Rice bakanae disease-causing microbe (Gibberella fujikuroi); test: Antimicrobial activity to various pathogenic microbes: G.f; conditions: 50 mg/L
Description: as §1, §2, §4

[4] = system: Sclerotinia rot-causing microbe (Sclerotinia sclerotiorum); test: Antimicrobial activity to various pathogenic microbes: S.s; conditions: 50 mg/L
Description: as §1, §2, §4
Sclerotinia rot-causing microbe (Sclerotinia sclerotiorum) S.s

[5] = system: Cucumber Fusarium wilt-causing microbe (Fusarium oxysporum); test: Antimicrobial activity to various pathogenic microbes: F.c; conditions: 50 mg/L
Description: as §1, §2, §4

[6] = system: Apple alternaria blotch-causing microbe (Alternaria alternata); test: Antimicrobial activity to various pathogenic microbes: A.m; conditions: 50 mg/L
Description: as §1, §2, §3, §4
Apple alternaria blotch-causing microbe (Alternaria alternata) A.m

[7] = system: Barley scald-causing microbe (Rhynchosporium secalis); test: Antimicrobial activity to various pathogenic microbes: R.sec; conditions: 50 mg/L
Description: as §1, §2, §3, §4
Barley scald-causing microbe (Rhynchosporium secalis) R.sec

[8] = system: Wheat glume blotch-causing microbe (Phaeosphaeria nodorum); test: Antimicrobial activity to various pathogenic microbes: P.n; conditions: 50 mg/L
Description: as §1, §2, §3, §4
Wheat glume blotch-causing microbe (Phaeosphaeria nodorum) P.n

[9] = system: Wheat eye spot-causing microbe (Pseudocercoporella herpotrichoides); test: Antimicrobial activity to various pathogenic microbes: P.h; conditions: 50 mg/L
Description: as §1
(§5) The plates were cultured at 25° C. for 14 days after inoculation and the diameter of the microbial colony was determined. Hyphal expansion-inhibiting rate was calculated according to the following equation: R=100(dc−dt)/dc (wherein, R: hyphal expansion-inhibiting rate (%), dc: diameter of microbial colony on non-treated flat plate, dt: diameter of microbial colony on chemically-treated flat plate).
as §4
Wheat eye spot-causing microbe (Pseudocercoporella herpotrichoides) P.h

[10] = system: wheat powdery mildew-causing microbes; test: Controlling activity to wheat powdery mildew of seed treatment (pot test); assay type: in vivo, Erysiphe graminis f. sp tritici; conditions: 2 mg in DMSO applied to wheat seeds 1 g, 14 to 28 days after seeding
Description: Controlling activity to wheat powdery mildew was examined in a pot test. Each of the inventive compounds […]-53, and a comparative compound (1) was weighed in an amount of 2 mg and dissolved in DMSO (18 μl). The solution thus prepared was applied to wheat seeds 1 g in a vial, 8 wheat seeds were seeded in a 80 cm^2 pot. The wheat was grown, as water was supplied from blow, in a greenhouse where wheat powdery mildew-causing microbes are present abundantly. The incidence rate was determined and the controlling rate and additionally the controlling index calculated 14 to 28 days after seeding. The controlling rate was calculated and the wheat powdery mildew controlling index determined according to the following equation: Controlling rate=(1-Incidence rate in treated region/Incidence rate in non-treated region)×100(%) [table]

[11] = system: Rice blast-causing microbe (Pyricularia oryzae); assay type: cell-based; conditions: 50 mg/L
[12] = system: Barley loose smut-causing microbe (Ustilago nuda); test: Antimicrobial activity to various pathogenic microbes: U.n; conditions: 50 mg/L
Description: as §1, §5, §4
Barley loose smut-causing microbe (Ustilago nuda) U.n

[13] = system: wheat leaf rust-causing microbe; test: Wheat leaf rust-controlling activity (foliar spray, pot test); assay type: in vivo, Puccinia recondita; conditions: Concentration 25 g/ha; wettable powder sprayed on wheat (Norin No. 61), 9 to 14 days after inoculation
[14] = system: Wheat fusarium blight-causing microbe (Fusarium graminearum); assay type: cell-based; conditions: 50 mg/L

CCCOC(=O)[C@]1(C)CC[C@H](Cc2ccc(Cl)cc2)[C@@]1(O)Cn1cncn1 (racemic) [Compound I-136, n-propyl-(1RS,2SR,3RS)-3-(4-chlorobenzyl)-2-hydroxy-1-methyl-2-(1H-1,2,4-triazol-1-ylmethyl)cyclopentanecarboxylate]
Growth inhibition (hyphal expansion-inhibiting rate grade) B.c [1]: 5 (hyphal expansion-inhibiting rate: 80% or more)
Damage index Growth inhibition (wheat): 4 (1% or more and less than 20%)
inhibition at 50 µg/mL ([2]; 336 h, Concentration 50 mg/L): > 80%
Growth inhibition (hyphal expansion-inhibiting rate grade) G.f [3]: 5 (hyphal expansion-inhibiting rate: 80% or more)
Growth inhibition (hyphal expansion-inhibiting rate grade) S.s [4]: 5 (hyphal expansion-inhibiting rate: 80% or more)
Growth inhibition (hyphal expansion-inhibiting rate grade) F.c [5]: 5 (hyphal expansion-inhibiting rate: 80% or more)
Growth inhibition (hyphal expansion-inhibiting rate grade) A.m [6]: 5 (hyphal expansion-inhibiting rate: 80% or more)
Growth inhibition (hyphal expansion-inhibiting rate grade) R.sec [7]: 5 (hyphal expansion-inhibiting rate: 80% or more)
Growth inhibition (hyphal expansion-inhibiting rate grade) P.n [8]: 5 (hyphal expansion-inhibiting rate: 80% or more)
Growth inhibition (hyphal expansion-inhibiting rate grade) P.h [9]: 5 (hyphal expansion-inhibiting rate: 80% or more)
Controlling index Wheat powdery mildew [10]: 5 (Controlling rate: 40 or more)
Growth inhibition (hyphal expansion-inhibiting rate grade) P.o [11]: 5 (hyphal expansion-inhibiting rate: 80% or more)
Growth inhibition (hyphal expansion-inhibiting rate grade) U.n [12]: 5 (hyphal expansion-inhibiting rate: 80% or more)
Controlling index [13]: 5 (81 to 100)
Growth inhibition (hyphal expansion-inhibiting rate grade) F.g [14]: 5 (hyphal expansion-inhibiting rate: 80% or more)

C=CCOC(=O)[C@]1(C)CC[C@H](Cc2ccc(Cl)cc2)[C@@]1(O)Cn1cncn1 (racemic) [Compound I-134, allyl-(1RS,2SR,3RS)-3-(4-chlorobenzyl)-2-hydroxy-1-methyl-2-(1H-1,2,4-triazol-1-ylmethyl)cyclopentanecarboxylate]
Growth inhibition (hyphal expansion-inhibiting rate grade) B.c [1]: 5 (hyphal expansion-inhibiting rate: 80% or more)
Damage index Growth inhibition (wheat): 3 (20% or more and less than 40%)
inhibition at 50 µg/mL ([2]; 336 h, Concentration 50 mg/L): > 80%
Growth inhibition (hyphal expansion-inhibiting rate grade) G.f [3]: 5 (hyphal expansion-inhibiting rate: 80% or more)
Growth inhibition (hyphal expansion-inhibiting rate grade) S.s [4]: 5 (hyphal expansion-inhibiting rate: 80% or more)
Growth inhibition (hyphal expansion-inhibiting rate grade) F.c [5]: 5 (hyphal expansion-inhibiting rate: 80% or more)
Growth inhibition (hyphal expansion-inhibiting rate grade) A.m [6]: 5 (hyphal expansion-inhibiting rate: 80% or more)
Growth inhibition (hyphal expansion-inhibiting rate grade) R.sec [7]: 5 (hyphal expansion-inhibiting rate: 80% or more)
Growth inhibition (hyphal expansion-inhibiting rate grade) P.n [8]: 5 (hyphal expansion-inhibiting rate: 80% or more)
Growth inhibition (hyphal expansion-inhibiting rate grade) P.h [9]: 5 (hyphal expansion-inhibiting rate: 80% or more)
Controlling index Wheat powdery mildew [10]: 5 (Controlling rate: 40 or more)
Growth inhibition (hyphal expansion-inhibiting rate grade) P.o [11]: 5 (hyphal expansion-inhibiting rate: 80% or more)
Growth inhibition (hyphal expansion-inhibiting rate grade) U.n [12]: 5 (hyphal expansion-inhibiting rate: 80% or more)
Controlling index [13]: 5 (81 to 100)
Growth inhibition (hyphal expansion-inhibiting rate grade) F.g [14]: 5 (hyphal expansion-inhibiting rate: 80% or more)

CC(C)OC(=O)[C@]1(C)CC[C@H](Cc2ccc(Cl)cc2)[C@@]1(O)Cn1cncn1 (racemic) [Compound I-137, isopropyl-(1RS,2SR,3RS)-3-(4-chlorobenzyl)-2-hydroxy-1-methyl-2-(1H-1,2,4-triazol-1-ylmethyl)cyclopentanecarboxylate]
Growth inhibition (hyphal expansion-inhibiting rate grade) B.c [1]: 5 (hyphal expansion-inhibiting rate: 80% or more)
Damage index Growth inhibition (wheat): 5
inhibition at 50 µg/mL ([2]; 336 h, Concentration 50 mg/L): > 80%
Growth inhibition (hyphal expansion-inhibiting rate grade) G.f [3]: 5 (hyphal expansion-inhibiting rate: 80% or more)
Growth inhibition (hyphal expansion-inhibiting rate grade) S.s [4]: 5 (hyphal expansion-inhibiting rate: 80% or more)
Growth inhibition (hyphal expansion-inhibiting rate grade) F.c [5]: 5 (hyphal expansion-inhibiting rate: 80% or more)
Growth inhibition (hyphal expansion-inhibiting rate grade) A.m [6]: 5 (hyphal expansion-inhibiting rate: 80% or more)
Growth inhibition (hyphal expansion-inhibiting rate grade) R.sec [7]: 5 (hyphal expansion-inhibiting rate: 80% or more)
Growth inhibition (hyphal expansion-inhibiting rate grade) P.n [8]: 5 (hyphal expansion-inhibiting rate: 80% or more)
Growth inhibition (hyphal expansion-inhibiting rate grade) P.h [9]: 5 (hyphal expansion-inhibiting rate: 80% or more)
Controlling index Wheat powdery mildew [10]: 5 (Controlling rate: 40 or more)
Growth inhibition (hyphal expansion-inhibiting rate grade) P.o [11]: 5 (hyphal expansion-inhibiting rate: 80% or more)
Growth inhibition (hyphal expansion-inhibiting rate grade) U.n [12]: 5 (hyphal expansion-inhibiting rate: 80% or more)
Controlling index [13]: 5 (81 to 100)
Growth inhibition (hyphal expansion-inhibiting rate grade) F.g [14]: 5 (hyphal expansion-inhibiting rate: 80% or more)

CCOC(=O)[C@]1(C)CC[C@@H](Cc2ccc(Cl)cc2)[C@]1(O)Cn1cncn1 (racemic) [Compound I-3, ethyl-(1RS,2RS,3SR)-3-(4-chlorobenzyl)-2-hydroxy-1-methyl-2-(1H-1,2,4-triazol-1-ylmethyl)cyclopentanecarboxylate]
Growth inhibition (hyphal expansion-inhibiting rate grade) B.c [1]: 5 (hyphal expansion-inhibiting rate: 80% or more)
Damage index Growth inhibition (wheat): 1 (60% or more and less than 80%)
inhibition at 50 µg/mL ([2]; 336 h, Concentration 50 mg/L): > 80%
inhibition at 1.25 µg/mL ([2]; 336 h, test sample concentration 1.25 mg/L, read-out: hyphal expansion-inhibiting rate): ≥ 80%
Growth inhibition (hyphal expansion-inhibiting rate grade) G.f [3]: 5 (hyphal expansion-inhibiting rate: 80% or more)
Growth inhibition (hyphal expansion-inhibiting rate grade) S.s [4]: 5 (hyphal expansion-inhibiting rate: 80% or more)
Growth inhibition (hyphal expansion-inhibiting rate grade) F.c [5]: 5 (hyphal expansion-inhibiting rate: 80% or more)
Growth inhibition (hyphal expansion-inhibiting rate grade) A.m [6]: 5 (hyphal expansion-inhibiting rate: 80% or more)
Growth inhibition (hyphal expansion-inhibiting rate grade) R.sec [7]: 5 (hyphal expansion-inhibiting rate: 80% or more)
Growth inhibition (hyphal expansion-inhibiting rate grade) P.n [8]: 5 (hyphal expansion-inhibiting rate: 80% or more)
Growth inhibition (hyphal expansion-inhibiting rate grade) P.h [9]: 5 (hyphal expansion-inhibiting rate: 80% or more)
Controlling index Wheat powdery mildew [10]: 5 (Controlling rate: 40 or more)
Growth inhibition (hyphal expansion-inhibiting rate grade) P.o [11]: 5 (hyphal expansion-inhibiting rate: 80% or more)
Growth inhibition (hyphal expansion-inhibiting rate grade) U.n [12]: 5 (hyphal expansion-inhibiting rate: 80% or more)
Controlling index [13]: 5 (81 to 100)
Growth inhibition (hyphal expansion-inhibiting rate grade) F.g [14]: 5 (hyphal expansion-inhibiting rate: 80% or more)

CNC(=O)[C@]1(C)CC[C@H](Cc2ccc(Cl)cc2)[C@@]1(O)Cn1cncn1 (racemic) [Compound I-148, N-methyl-(1RS,2SR,3RS)-3-(4-chlorobenzyl)-2-hydroxy-1-methyl-2-(1H-1,2,4-triazol-1-ylmethyl)cyclopentane carboxyamide]
Growth inhibition (hyphal expansion-inhibiting rate grade) B.c [1]: 5 (hyphal expansion-inhibiting rate: 80% or more)
Damage index Growth inhibition (wheat): 5
Growth inhibition ([2]; Concentration 50 mg/L): 5 (hyphal expansion-inhibiting rate: 80% or more)
Growth inhibition (hyphal expansion-inhibiting rate grade) G.f [3]: 5 (hyphal expansion-inhibiting rate: 80% or more)
Growth inhibition (hyphal expansion-inhibiting rate grade) S.s [4]: 5 (hyphal expansion-inhibiting rate: 80% or more)
Growth inhibition (hyphal expansion-inhibiting rate grade) F.c [5]: 5 (hyphal expansion-inhibiting rate: 80% or more)
Growth inhibition (hyphal expansion-inhibiting rate grade) A.m [6]: 5 (hyphal expansion-inhibiting rate: 80% or more)
Growth inhibition (hyphal expansion-inhibiting rate grade) R.sec [7]: 5 (hyphal expansion-inhibiting rate: 80% or more)
Growth inhibition (hyphal expansion-inhibiting rate grade) P.n [8]: 5 (hyphal expansion-inhibiting rate: 80% or more)
Growth inhibition (hyphal expansion-inhibiting rate grade) P.h [9]: 5 (hyphal expansion-inhibiting rate: 80% or more)
Controlling index Wheat powdery mildew [10]: 5 (Controlling rate: 40 or more)
Growth inhibition (hyphal expansion-inhibiting rate grade) P.o [11]: 5 (hyphal expansion-inhibiting rate: 80% or more)
Growth inhibition (hyphal expansion-inhibiting rate grade) U.n [12]: 5 (hyphal expansion-inhibiting rate: 80% or more)
Controlling index [13]: 5 (81 to 100)
Growth inhibition (hyphal expansion-inhibiting rate grade) F.g [14]: 5 (hyphal expansion-inhibiting rate: 80% or more)
